# Measured values from PubChem BioAssay AID588780 (Sanford-Burnham Center for Chemical Genomics, 2011).
# The source made the active and inactive calls.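 The calls were made as follows: active = compounds whose fitted half-maximal concentration in the cell-protection dose series is at or below a set limit; inactive = the rest.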
# Tested on: H9c2 cardiomyocytes, 2-deoxyglucose stress, ATP luminescence, 2 h
# Test: protection of cardiomyocytes from 2-deoxyglucose injury, dose response, cell-based, 2-deoxyglucose stress, uHTS hits (AID 588780)
row,SMILES,IC50
1,O=C1N[C@H](Cc2ccccc2)COC(=O)[C@@H](Cc2ccc(F)cc2)C/C=C\C[C@H]1CC(=O)N(CCO)Cc1ccccc1,20.5 µM
2,Cc1cccc(-n2[nH]c(C)c(C=Nc3ccc4[nH]c(=O)[nH]c4c3)c2=O)c1,> 79 µM (inactive)
3,CCOCCn1ccc2c(OCC(=O)Nc3cc(OC)ccc3OC)cccc2c1=O,> 79 µM (inactive)
4,Cn1c(=O)n(CCc2ccccc2)c(=O)c2c1nc1n2CCCN1Cc1ccccc1,14.1 µM
5,Cc1cnc(NC(=O)CSc2nc3ccccc3c(=O)[nH]2)s1,> 79 µM (inactive)
6,COc1ccc(-c2cc(NC=O)c3ncc(-c4ccccc4)n3c2)cc1OC,> 79 µM (inactive)
7,Cc1c(C(=O)NCC2COc3ccccc3O2)oc2ccc(S(=O)(=O)N3CCOCC3)cc12 (configuration not stated),> 79 µM (inactive)
8,CC(C)(C)NC(=O)c1cc(NC(=O)c2cccs2)cc(NC(=O)c2cccs2)c1,> 79 µM (inactive)
9,O=C(NCC(=O)N(Cc1ccccc1)C(C(=O)NC1CCCCC1)c1ccco1)c1ccco1 (configuration not stated),16.2 µM
10,COc1ccc(-c2cc(-c3ccc(O)cc3)nc(N)c2C#N)cc1OC,> 79 µM (inactive)
11,Cc1cc(NC(=O)C2CCCCC2)nc2c1c(=O)oc1ccccc12,15.3 µM
12,CCOc1cc(/C=C/c2ccc3cccc([N+](=O)[O-])c3n2)ccc1OCC(=O)N(C)C,12.5 µM
13,CC(NC(=O)c1cc2c(=O)n(C)c3ccccc3c2n1C)c1ccc2c(c1)OCCO2 (configuration not stated),30.5 µM (inactive)
14,COc1ccc(C(C(=O)NC2CCCCC2)N(Cc2cccs2)C(=O)Cc2c[nH]c3ccccc23)cc1OC (configuration not stated),12.5 µM
15,COc1ccc(-c2csc(NC(=O)CCn3cnc4ccccc4c3=O)n2)cc1OC,> 79 µM (inactive)
16,COc1ccc(-c2csc(/C(C#N)=C(\O)CSc3nccn3C)n2)cc1OC,> 79 µM (inactive)
17,CC(Oc1cccc(Cl)c1)C(=O)Nc1nc(-c2ccccn2)cs1 (configuration not stated),44.4 µM (inactive)
18,CCOc1ccc(NCc2cc3c(C(C)(C)C)nn(-c4ccccc4)c3[nH]c2=O)cc1,> 79 µM (inactive)
19,Cc1cccc(C)c1OCCn1nc(C(=O)O)c2ccccc2c1=O,10.8 µM
20,Cc1ccc(Cn2c(CCNc3nc(-c4ccc(Cl)c([N+](=O)[O-])c4)cs3)nc3cc(C(=O)NCCCO)ccc32)cc1,> 79 µM (inactive)
21,CNC(=O)c1ccc(-c2sc3nc(N4CCOCC4)c4c(c3c2N)CC(C)(C)OC4)o1,13.2 µM
22,CCCOc1ccc2[nH]c(C(=O)N/N=C/c3cc(OC)c(OC)c(OC)c3)cc2c1,9.02 µM
23,O=C(COC(=O)c1ccc([N+](=O)[O-])s1)Nc1ccc(Cl)cn1,> 79 µM (inactive)

row,SMILES,IC50
1,CC1Cc2ccccc2N1C(=O)COC(=O)c1n[nH]c(=O)c2ccccc12 (configuration not stated),> 79 µM (inactive)
2,Cc1cccc(NC(=O)c2oc3ccc(S(=O)(=O)N4CCOCC4)cc3c2C)c1C,> 79 µM (inactive)
3,c1cncc(-c2nc(NCC3COc4ccccc4O3)c3ccccc3n2)c1 (configuration not stated),> 79 µM (inactive)
4,O=c1[nH]c2c(c3c1CCCC3)CCCC2,> 79 µM (inactive)
5,CCOC(=O)c1ccccc1NC(=O)CSc1ccc(-c2ccccn2)nn1,23.4 µM
6,CCCCn1c(N)c(Br)c(=O)[nH]c1=O,> 79 µM (inactive)
7,O=C(COC(=O)Cc1n[nH]c(=O)c2ccccc12)NNC(=O)c1ccc(Cl)cc1,> 79 µM (inactive)
8,COC(=O)c1cc(C(=O)OCC(=O)N2c3ccccc3NC(=O)C2(C)C)cc([N+](=O)[O-])c1,39 µM (inactive)
9,Cn1c(-n2c(CCCN3C(=O)c4ccccc4C3=O)nc3ccccc3c2=O)nc2ccccc21,26.4 µM
10,COc1ccc(-c2cc(NC(C)=O)c3ncc(-c4cccc(C(C)=O)c4)n3c2)cc1OC,7.56 µM
11,N#Cc1c(-c2ccco2)cc(-c2cccnc2)nc1N,12.1 µM
12,CCN(CC(=O)Nc1c(F)cccc1F)C(=O)Cn1[nH]c(=O)c2ccccc2c1=O,> 79 µM (inactive)
13,NC(=O)c1nsc(C(=O)N(c2ccccc2F)C(C(=O)NCc2ccc(F)cc2)c2ccc(O)cc2)c1N (configuration not stated),> 79 µM (inactive)
14,CCOC(=O)C1=C(COC(=O)c2ccc([N+](=O)[O-])o2)NC(=O)NC1C (configuration not stated),> 79 µM (inactive)
15,COC(=O)c1ccc(N)c(N=CC2=C(O)CC(C)(C)CC2=O)c1,10.8 µM
16,Cc1ccc(-c2nnc3ccc(SCC(=O)N4CCCc5ccccc54)nn23)cc1,> 79 µM (inactive)
17,O=C(Nc1ccccc1)c1nc[nH]c1C(=O)NCCCCCCNC(=O)c1[nH]cnc1C(=O)Nc1ccccc1,10.5 µM
18,Cc1ccc(C)c(S(=O)(=O)N2CCN(C(=O)CCc3nc4ccccc4c(=O)[nH]3)CC2)c1,> 79 µM (inactive)
19,COc1ccc(-c2nc(NC(=O)c3ccc(OCC(=O)N4CCOCC4)c(OC)c3)sc2C)cc1,> 79 µM (inactive)
20,CCN1C(=O)/C(=C/c2nc3ccccc3c(=O)n2-c2ccccc2)c2ccccc21,> 79 µM (inactive)
21,O=C(COC(=O)c1cc(-c2cccnc2)nc2ccccc12)Nc1ccc(F)cc1F,23.2 µM
22,Cc1c(C=O)c2ccccn2c1C(=O)c1ccc(Cl)c([N+](=O)[O-])c1,> 79 µM (inactive)
23,COCCNC(=O)COC(=O)c1ccc(OCC(=O)Nc2ccccc2OC)c(OC)c1,22.9 µM

row,SMILES,IC50
1,C1=C(c2ccccc2)CCN(c2nc3ccccc3n3cnnc23)C1,27.6 µM
2,O=C/C(=C\Nc1ccccn1)c1nc2cc(Cl)ccc2o1,> 79 µM (inactive)
3,N#CC(c1nc2ccccc2nc1N1CCCC1)S(=O)(=O)c1cccs1 (configuration not stated),34.1 µM (inactive)
4,COc1cc(NC(=O)c2cc3nc(-c4ccccc4)cc(-c4ccccc4)n3n2)cc(OC)c1OC,> 79 µM (inactive)
5,CC(C)(C)OC(=O)CNC(=O)c1[nH]cnc1C(=O)NCC(=O)OCc1ccccc1,> 79 µM (inactive)
6,CC(=O)Nc1cc(-c2cccc(NS(C)(=O)=O)c2)cn2c(-c3cccc(C(C)=O)c3)cnc12,> 79 µM (inactive)
7,CCc1nc2ccc(C(=O)Nc3cccc(OCC(=O)N(C)C)c3)cn2c1N(C)Cc1cc2ccccc2s1,11.8 µM
8,COc1cccc(-c2nnc3sc(-c4ccccn4)nn23)c1,> 79 µM (inactive)
9,Cc1cc(=O)oc2cc(OCC(=O)N3CCN(C(=O)C4COc5ccccc5O4)CC3)c(Cl)cc12 (configuration not stated),12.7 µM
10,O=C(COC(=O)CCc1nc2ccccc2c(=O)[nH]1)NC(c1ccccc1)c1ccccc1,> 79 µM (inactive)
11,COc1cc2c(cc1OC)C(COc1ccc3c(C)cc(=O)oc3c1)N(C(=O)c1ccco1)CC2 (configuration not stated),10.1 µM
12,Cc1cc(C)cc(OCC(=O)Nc2cccc(-c3nc4ncccc4o3)c2)c1,> 79 µM (inactive)
13,COc1cc(NC(=O)c2ccco2)c(OC)cc1NC(=O)c1cc(OC)c(OC)c(OC)c1,> 79 µM (inactive)
14,O=C1Nc2ccccc2C(=O)C1(Cl)Cc1ccccc1 (configuration not stated),> 79 µM (inactive)
15,CCN(Cc1ccccc1)C(=O)c1cc2c(=O)oc3ccc(C)cc3c2s1,> 79 µM (inactive)
16,Cc1c(O)c(CN2CCCCC2)cc2c1oc(=O)c1ccccc12,> 79 µM (inactive)
17,O=C(c1cc(=O)[nH]c2ccccc12)N1CCN(S(=O)(=O)c2ccc3ccccc3c2)CC1,14.5 µM
18,COc1cc(C(=O)Nc2ccc(NC(=O)c3ccco3)nc2)cc(OC)c1OC,53.5 µM (inactive)
19,CCOC(=O)C1CCN(c2cc3c(cc2NC(=O)c2ccc(F)cc2)n(C)c(=O)n3C)CC1,21.2 µM
20,COc1ccc(N=Cc2cc(Cl)ccc2O)cc1Cl,> 79 µM (inactive)
21,COc1ccc(NC(=O)N(C)[C@H]2C[C@H]3c4[nH]c5ccc(-c6ccc7c(c6)OCO7)cc5c4CCN3C[C@H]2[C@H](C)O)cc1,> 79 µM (inactive)
22,CSc1nc(Cl)c(Br)c(N2CC2)n1,> 79 µM (inactive)
23,CCc1nnc(NC(=O)CSc2nnc(CNc3ccc(OC)cc3)n2C)s1,> 79 µM (inactive)

row,SMILES,IC50
1,O=C(CCc1nc2ccccc2c(=O)[nH]1)NNC(=O)c1ccc(Cl)cc1,> 79 µM (inactive)
2,COC(=O)[C@@]12CCCCN1[C@H](c1ccc(-c3cc(C(C)=O)cs3)cc1)[C@H]1C(=O)N(C)C(=O)[C@H]12,> 79 µM (inactive)
3,CCN(CC(=O)Nc1cc(Cl)ccc1C)C(=O)CCc1nc2ccccc2c(=O)[nH]1,> 79 µM (inactive)
4,COc1ccccc1NC(=O)c1cc(-c2cc(OC)c(OC)c(OC)c2)nc2ccccc12,> 79 µM (inactive)
5,NC(=O)c1nsc(C(=O)N(CCc2ccccc2)C(C(=O)NC2CCCC2)c2ccco2)c1N (configuration not stated),22.4 µM
6,O=c1[nH]cnc2sc3c(c12)CCC3,> 79 µM (inactive)
7,COc1ccc(CCNC(=O)c2cc(C(=O)c3cc(C)ccc3O)cn(CCc3ccc(OC)cc3)c2=O)cc1,> 79 µM (inactive)
8,CCOC(=O)N1CCN(S(=O)(=O)c2ccc(C(=O)NNc3nc4c(C)cccc4s3)cc2)CC1,> 79 µM (inactive)
9,CC12CCC3C(CCC4CC(O)CCC43C)C1CC(O)C2 (configuration not stated),> 79 µM (inactive)
10,Cc1cc(C)c(OCC(=O)Nc2nc(-c3ccccn3)cs2)c(C)c1,> 79 µM (inactive)
11,Cc1c(NC(=O)Cn2[nH]c(=O)c3ccccc3c2=O)c(=O)n(-c2ccccc2)n1C,> 79 µM (inactive)
12,Cc1cccc(C(=O)NC(C(=O)Nc2nc(-c3ccccn3)cs2)C(C)C)c1 (configuration not stated),12.7 µM
13,O=c1cc(CSc2nc3ccccc3c(=O)[nH]2)c2ccc(O)cc2o1,> 79 µM (inactive)
14,CC(C)COc1nc2ccccc2c(=O)n1OCC(=O)O,> 79 µM (inactive)
15,CNC(=O)c1cccc(NC(=O)c2cc(-c3ccccc3)nc3c2cnn3C(C)C)c1,> 79 µM (inactive)
16,CCC(c1nnnn1Cc1ccccc1)N1CCC(n2c(=O)[nH]c3ccccc32)CC1 (configuration not stated),> 79 µM (inactive)
17,CCCCc1cc(=O)oc2cc(O)ccc12,> 79 µM (inactive)
18,Cc1cc(Br)cc(C=Nc2ccc(N3CCOCC3)cc2)c1O,58.4 µM (inactive)
19,COc1ccc(NC(=O)N(C)C[C@H]2Oc3c(NC(=O)Nc4ccc(C(F)(F)F)cc4)cccc3C(=O)N([C@H](C)CO)C[C@@H]2C)cc1,> 79 µM (inactive)
20,O=C(Nc1nc(-c2ccccn2)cs1)c1ccccc1-n1cnnn1,> 79 µM (inactive)
21,Cn1c(=O)c2c(nc(NCCCO)n2C/C=C/c2ccccc2)n(C)c1=O,> 79 µM (inactive)
22,O=C(CNC(=O)c1nc[nH]c1C(=O)NCc1ccccc1)OCc1ccccc1,> 79 µM (inactive)
23,COc1ccc(CC(=O)N/N=C(\C)c2ccccn2)cc1,26.7 µM
